A word on the pIC50: it is −log10 of the IC50, conventionally taken in molar units.

The record followed here is patent US12473304B2, “Heterocyclic PAD4 inhibitors” (BRISTOL-MYERS SQUIBB COMPANY, priority 2020, dated 2025).

pIC50: −log10 of the molar value.

The target of the assay is human PAD4 (hPAD4) (Homo sapiens (Human), UniProt Q9UM07). The assay is described as follows: RFMS Human PAD4 Functional Assay 1. It is filed as biochemical. The note with it: RFMS assay 1; 5 nM hPAD4, 250 μM BAEE substrate, 50 μM calcium, 37° C. The essentials: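 Recombinant hPAD4 (5 nM) was preincubated with compound (top 50 μM, 0.5% DMSO) for 30 min at 37 °C, then reacted with 250 μM BAEE for 90 min at 37 °C in pH 7.5 HEPES buffer with 50 μM calcium and 5 μM TPEN. Product was derivatized with phenyl glyoxal and quantified by RapidFire MS.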
Chain of human PAD4 (hPAD4) (Q9UM07 whole entry): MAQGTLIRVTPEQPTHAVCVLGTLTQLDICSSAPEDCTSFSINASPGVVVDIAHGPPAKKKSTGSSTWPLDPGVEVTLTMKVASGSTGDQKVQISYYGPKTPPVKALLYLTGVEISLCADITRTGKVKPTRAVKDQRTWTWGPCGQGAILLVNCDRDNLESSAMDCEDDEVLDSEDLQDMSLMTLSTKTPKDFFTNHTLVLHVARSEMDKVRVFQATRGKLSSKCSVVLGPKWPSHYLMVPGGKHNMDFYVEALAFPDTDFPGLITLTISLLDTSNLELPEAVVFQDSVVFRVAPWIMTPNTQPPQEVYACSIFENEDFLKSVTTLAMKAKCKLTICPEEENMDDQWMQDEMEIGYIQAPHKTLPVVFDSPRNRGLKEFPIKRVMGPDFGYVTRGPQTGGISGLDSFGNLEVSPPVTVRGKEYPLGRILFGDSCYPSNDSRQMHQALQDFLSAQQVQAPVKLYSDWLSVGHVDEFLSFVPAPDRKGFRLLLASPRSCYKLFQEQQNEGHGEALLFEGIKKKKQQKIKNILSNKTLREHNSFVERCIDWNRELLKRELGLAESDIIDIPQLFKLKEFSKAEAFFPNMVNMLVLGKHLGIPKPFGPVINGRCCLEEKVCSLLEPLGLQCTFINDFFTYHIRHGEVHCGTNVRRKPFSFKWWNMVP
Regarding `COc1nc(C(=O)N2C[C@H](N)C[C@@H](F)C2)cn2nc(-c3cc4ccccc4n3CC3CC3)c(C)c12` [Example 114, ((3R,5R)-3-Amino-5-fluoropiperidin-1-yl)(2-(1-(cyclopropylmethyl)-1H-indol-2-yl)-4-methoxy-3-methylpyrazolo[1,5-a]pyrazin-6-yl)methanone], the pIC50 was 5.40. Next, `COc1cc(C(=O)N2CC3CCC2[C@@H]3N)cn2nc(-c3cc4ccc(-c5ccc(C(N)=O)c(C)c5)nc4n3CC3CC3)c(C)c12` (stereo partly drawn) [Example 206, 4-(2-{6-[(7R)-7-Amino-2-azabicyclo[2.2.1]heptane-2-carbonyl]-4-methoxy-3-methylpyrazolo[1,5-a]pyridin-2-yl}-1-(cyclopropylmethyl)-1H-pyrrolo[2,3-b]pyridin-6-yl)-2-methylbenzamide]: 7.15. In the case of `COc1cc(C(=O)N2C[C@H](N)C[C@@H](F)C2)cc2oc(-c3cc4cccnc4n3CC3CC3)c(C)c12` [Example 147, ((3R,5R)-3-Amino-5-fluoropiperidin-1-yl)(2-(1-(cyclopropylmethyl)-1H-pyrrolo[2,3-b]pyridin-2-yl)-4-methoxy-3-methylbenzofuran-6-yl)methanone] it was 6.02; in that of `Cc1c(-c2cc3ccc(-c4ccc5c(c4)C(=O)NC5)cc3n2CC2CC2)nn2cc(C(=O)N3C[C@H](N)C[C@@H](F)C3)ccc12` [Example 96, 6-(2-(6-((3R,5R)-3-Amino-5-fluoropiperidine-1-carbonyl)-3-methylpyrazolo[1,5-a]pyridin-2-yl)-1-(cyclopropylmethyl)-1H-indol-6-yl)isoindolin-1-one], 6.23; in that of `COc1cc(C(=O)N2CC3CCC2[C@@H]3N)cc2sc(-c3cc4ccc(-c5ccn6c(C)nnc6c5)cc4n3CC3CC3)c(C)c12` (stereo partly drawn) [Example 122, ((7R)-7-Amino-2-azabicyclo[2.2.1]heptan-2-yl)(2-(1-(cyclopropylmethyl)-6-(3-methyl-[1,2,4]triazolo[4,3-a]pyridin-7-yl)-1H-indol-2-yl)-4-methoxy-3-methylbenzo[b]thiophen-6-yl)methanone], 7.17. Next, `COc1cc(C(=O)N2CC3CCC2[C@@H]3N)cc2sc(-c3cc4ccc(-c5ccc6c(c5)C(=O)NC6)cc4n3CC3CC3)c(C)c12` (stereo partly drawn) [Example 120, 6-(2-(6-((7R)-7-Amino-2-azabicyclo[2.2.1]heptane-2-carbonyl)-4-methoxy-3-methylbenzo[b]thiophen-2-yl)-1-(cyclopropylmethyl)-1H-indol-6-yl)isoindolin-1-one]: 6.60. Consider `COc1cc(C(=O)N2C[C@H](N)C[C@@H](F)C2)cn2nc(-c3cc4cccc(C5CCN(C(=O)C6CCCO6)CC5)c4n3CC3CC3)c(C)c12` (single isomer, unassigned) [Example 394], for which the negative-log IC50 (pIC50) is 8.00. In the case of `Cc1c(-c2cc3ccc(-c4ccc(F)c(O)c4)nc3n2CC2CC2)nn2cc(C(=O)N3CC4CCC3[C@@H]4N)ccc12` (stereo partly drawn) [Example 75, ((7R)-7-Amino-2-azabicyclo[2.2.1]heptan-2-yl)(2-(1-(cyclopropylmethyl)-6-(4-fluoro-3-hydroxyphenyl)-1H-pyrrolo[2,3-b]pyridin-2-yl)-3-methylpyrazolo[1,5-a]pyridin-6-yl)methanone] it was 6.78; in that of `Cc1ccc2cc(-c3oc4cc(C(=O)N5CC6CCC5[C@@H]6N)ccc4c3C)n(CC3CC3)c2c1` (stereo partly drawn) [Example 184, ((7R)-7-Amino-2-azabicyclo[2.2.1]heptan-2-yl)(2-(1-(cyclopropylmethyl)-6-methyl-1H-indol-2-yl)-3-methylbenzofuran-6-yl)methanone], 7.30. Next, `COc1cc(C(=O)N2CCC[C@@H](N)C2)cn2nc(-c3cc4ccc(N5CCC(OC)CC5)cc4n3CC3CC3)c(C)c12` [Example 249, (3R)-1-{2-[1-(Cyclopropylmethyl)-6-(4-methoxypiperidin-1-yl)-1H-indol-2-yl]-4-methoxy-3-methylpyrazolo[1,5-a]pyridine-6-carbonyl}piperidin-3-amine]: 7.10.
